# From PMC3839082 (Proteins, 2011)
# Molecular target: hCINAP (Homo sapiens, UniProt Q9Y3D8)
# Experiment: coupled PK/LDH adenylate kinase assay
# Type: biochemical
# Chain of hCINAP (Q9Y3D8 whole entry): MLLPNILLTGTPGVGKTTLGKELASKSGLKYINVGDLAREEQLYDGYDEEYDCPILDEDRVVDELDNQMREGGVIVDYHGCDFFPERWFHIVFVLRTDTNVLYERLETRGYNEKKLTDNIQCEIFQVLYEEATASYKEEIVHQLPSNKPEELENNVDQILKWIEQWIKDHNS
compound,measurement,value
Nc1ncnc2c1ncn2[C@@H]1O[C@H](COP(=O)(O)OP(=O)(O)OP(=O)(O)OP(=O)(O)OP(=O)(O)OC[C@H]2O[C@@H](n3cnc4c(N)ncnc43)[C@H](O)[C@@H]2O)[C@@H](O)[C@H]1O [AP5A],IC50,0.027 ± 0.00293 µM
